The source of these data is US9402821B2, “Methods and pharmaceutical compositions for treatment of cystic fibrosis” (INSERM (Institut National de la sante et de la Recherche …, priority 2012, dated 2016).

The test system of this assay is IL-8 promoter. In words: IL-8 promoter luciferase reporter / IL-8 mRNA qPCR, TNFα-stimulated cells. In kind it is cell-based. Particulars: TNFα 10 ng/ml; bronchial epithelial cells and heterologous HeLa models (FIGS. 2A, B). As for the experimental part: Cells were transiently transfected by the short IL-8 promoter-firefly luciferase reporter and renilla luciferase reference and inflammation was induced by 10 ng/ml TNFα for 1 h. A. HeLa cells were pre-treated with diluent or different doses of sulindac 1 h before inflammation induction and 4 h after. IL-8 promoter activity in cells treated with sulindac+TNFα was expressed in percent of diluent+TNFα. B. After treatment, HeLa Ctr cells were lysed with TRIzol (Invitrogen). Total RNA was extracted, and 1 μg of total RNA was reverse transcribed with a reverse transcription kit. IL-8 mRNA expression was quantified by real-time quantitative PCR (qPCR). The comparative threshold cycle (CT) method was used for relative quantification of PCR products after IL-8 was normalised to TBP (ΔCt=CtIL-8−CtTBP). […] C After treatment, IL-8 in supernatant was measured by ELISA. The IL-8 stimulation of cells treated with test drug +TNFα were expressed as fold compared to drug −TNFα. […]
Cells were lysed with the Passive Lysis Buffer (Promega), and luciferase activity in the cellular extracts was determined by the Dual Luciferase Assay System (Promega) using a luminometer (Tristar; Berthold). The results were normalized to those obtained with the Renilla luciferase reference plasmid used to control the transfection efficiency, and the values were expressed as luminescence intensity (Luciferase/Renilla). […]
On the technique in general: A reporter such as luciferase makes a cellular process visible.

Take `CC1=C(CC(=O)O)c2cc(F)ccc2/C1=C\c1ccc([S+](C)[O-])cc1` (stereo not shown) [sulindac, (Z)-5-fluoro-2-methyl-1-[p-(methylsulfinyl)benzylidene]-indene-3-acetic acid]: the IL-8 transcription entry is “decreased IL-8 transcription”.
